{"source": "patent US20240139105A1", "about": "“PHARMACEUTICAL COMPOSITION CONTAINING GHRP-6” (CENTRO DE INGENIERÍA GENÉTICA Y BIOTECNOLOGÍA, priority 2021, published 2024)", "origin": "cited, not measured here", "key": {"humans": {"system": "humans", "details": "intravenous route"}, "[1]": {"system": "Mongolia gerbil (Meriones unguiculatus)", "details": "model of ischemic cerebral infarction, in combination with EGF"}, "pigs": {"system": "pigs", "details": "model of acute myocardial infarction in pigs"}}, "note": "Where no end group is shown, it is not given here. [ ]: non-standard residue; d: D form."}
{"substance": "His-Trp-Ala-Trp-Phe-Lys-NH2 (H[dW]AW[dF]K-NH2) [GHRP-6, synthetic peptide, growth hormone secretagogue; the API of all formulations]", "values": [{"measurement": "Doses referred as safe in humans", "setting": "humans", "result": "≤ 2", "unit": "µg/kg"}, {"measurement": "Therapeutic dosage reported", "setting": "[1]", "result": "around 600 μg/kg"}, {"measurement": "Therapeutic dosage reported", "setting": "pigs", "result": 400, "unit": "µg/kg"}]}
